ChEMBL document CHEMBL1649220, “New variant of CTX-M-type extended-spectrum beta-lactamases, CTX-M-71, with a Gly238Cys substitution in a Klebsiella pneumoniae isolate from Bulgaria” (2009)
≈ marks a conversion by molar mass, not a printed value.

Columns and labels:
Format in all cases: functional
Klebsiella pneumoniae [1] = assay: Antimicrobial activity against Klebsiella pneumoniae AH24-270 expressing blaCTX-M-71 gene by agar dilution method
Escherichia coli [2] = assay: Antimicrobial activity against Escherichia coli K-12 transconjugant harboring blaCTX-M-71 gene by agar dilution method
Escherichia coli [3] = assay: Antimicrobial activity against Escherichia coli K-12 by agar dilution method
Escherichia coli [4] = assay: Antimicrobial activity against Escherichia coli DH5[alpha] harboring pBC-CTX-M-71 plasmid by agar dilution method
Escherichia coli [5] = assay: Antimicrobial activity against Escherichia coli DH5[alpha] harboring pBC-CTX-M-15 plasmid by agar dilution method
Escherichia coli [6] = assay: Antimicrobial activity against Escherichia coli DH5[alpha] by agar dilution method
Klebsiella pneumoniae [7] = assay: Antimicrobial activity against Klebsiella pneumoniae AH24-270 expressing blaCTX-M-71 gene by agar dilution method in presence of beta-lactamase inhibitor clavulanic acid
Escherichia coli [8] = assay: Antimicrobial activity against Escherichia coli K-12 transconjugant harboring blaCTX-M-71 gene by agar dilution method in presence of beta-lactamase inhibitor clavulanic acid
Escherichia coli [9] = assay: Antimicrobial activity against Escherichia coli K-12 by agar dilution method in presence of beta-lactamase inhibitor clavulanic acid
Escherichia coli [10] = assay: Antimicrobial activity against Escherichia coli DH5alpha harboring pBC-CTX-M-71 plasmid by agar dilution method in presence of beta-lactamase inhibitor clavulanic acid; details: DH5[alpha]
Escherichia coli [11] = assay: Antimicrobial activity against Escherichia coli DH5alpha harboring pBC-CTX-M-15 plasmid by agar dilution method in presence of beta-lactamase inhibitor clavulanic acid; details: DH5[alpha]
Escherichia coli [12] = assay: Antimicrobial activity against Escherichia coli DH5alpha by agar dilution method in presence of beta-lactamase inhibitor clavulanic acid; details: DH5[alpha]
Klebsiella pneumoniae [13] = assay: Antimicrobial activity against Klebsiella pneumoniae AH24-270 expressing blaCTX-M-71 gene by agar dilution method in presence of beta-lactamase inhibitor Tazobactam
Escherichia coli [14] = assay: Antimicrobial activity against Escherichia coli K-12 transconjugant harboring blaCTX-M-71 gene by agar dilution method in presence of beta-lactamase inhibitor Tazobactam
Escherichia coli [15] = assay: Antimicrobial activity against Escherichia coli K-12 by agar dilution method in presence of beta-lactamase inhibitor Tazobactam
Escherichia coli [16] = assay: Antimicrobial activity against Escherichia coli DH5alpha harboring pBC-CTX-M-71 plasmid by agar dilution method in presence of beta-lactamase inhibitor Tazobactam; details: DH5[alpha]
Escherichia coli [17] = assay: Antimicrobial activity against Escherichia coli DH5alpha harboring pBC-CTX-M-15 plasmid by agar dilution method in presence of beta-lactamase inhibitor Tazobactam; details: DH5[alpha]
Escherichia coli [18] = assay: Antimicrobial activity against Escherichia coli DH5alpha by agar dilution method in presence of beta-lactamase inhibitor Tazobactam; details: DH5[alpha]

## CC1(C)S[C@@H]2[C@H](NC(=O)[C@H](N)c3ccc(O)cc3)C(=O)N2[C@H]1C(=O)O [AMOXICILLIN]
Klebsiella pneumoniae [1]
  MIC: > 512 µg/mL
Escherichia coli [2]
  MIC: > 512 µg/mL
Escherichia coli [3]
  MIC: 2 µg/mL (≈ 5.47 µM)
Escherichia coli [4]
  MIC: > 512 µg/mL
Escherichia coli [5]
  MIC: > 512 µg/mL
Escherichia coli [6]
  MIC: 4 µg/mL (≈ 10.9 µM)
Klebsiella pneumoniae [7]
  MIC: > 512 µg/mL
Escherichia coli [8]
  MIC: 64 µg/mL
Escherichia coli [9]
  MIC: 2 µg/mL
Escherichia coli [10]
  MIC: 8 µg/mL
Escherichia coli [11]
  MIC: 8 µg/mL
Escherichia coli [12]
  MIC: 2 µg/mL

## C[C@H]1[C@H](NC(=O)/C(=N\OC(C)(C)C(=O)O)c2csc(N)n2)C(=O)N1S(=O)(=O)O [AZTREONAM]
Klebsiella pneumoniae [1]
  MIC: 128 µg/mL (≈ 294 µM)
Escherichia coli [2]
  MIC: 8 µg/mL (≈ 18.4 µM)
Escherichia coli [4]
  MIC: 8 µg/mL (≈ 18.4 µM)
Escherichia coli [5]
  MIC: 64 µg/mL (≈ 147 µM)

## CO/N=C(\C(=O)N[C@@H]1C(=O)N2C(C(=O)[O-])=C(C[N+]3(C)CCCC3)CS[C@H]12)c1csc(N)n1 [CEFEPIME]
Klebsiella pneumoniae [1]
  MIC: 128 µg/mL (≈ 266 µM)
Escherichia coli [3]
  MIC: 0.016 µg/mL (≈ 0.0333 µM)
Escherichia coli [4]
  MIC: 4 µg/mL (≈ 8.32 µM)
Escherichia coli [5]
  MIC: 16 µg/mL (≈ 33.3 µM)
Escherichia coli [6]
  MIC: 0.016 µg/mL (≈ 0.0333 µM)

## CO/N=C(\C(=O)N[C@@H]1C(=O)N2C(C(=O)O)=C(COC(C)=O)CS[C@H]12)c1csc(N)n1 [CEFOTAXIME]
Klebsiella pneumoniae [1]
  MIC: 64 µg/mL (≈ 141 µM)
Escherichia coli [2]
  MIC: 4 µg/mL (≈ 8.78 µM)
Escherichia coli [3]
  MIC: 0.03 µg/mL (≈ 0.0659 µM)
Escherichia coli [4]
  MIC: 16 µg/mL (≈ 35.1 µM)
Escherichia coli [5]
  MIC: > 256 µg/mL
Escherichia coli [6]
  MIC: 0.03 µg/mL (≈ 0.0659 µM)
Klebsiella pneumoniae [7]
  MIC: 2 µg/mL
Escherichia coli [8]
  MIC: 0.06 µg/mL
Escherichia coli [9]
  MIC: 0.016 µg/mL
Escherichia coli [10]
  MIC: 0.03 µg/mL
Escherichia coli [11]
  MIC: 0.06 µg/mL
Escherichia coli [12]
  MIC: 0.016 µg/mL

## CO[C@@]1(NC(=O)Cc2cccs2)C(=O)N2C(C(=O)O)=C(COC(N)=O)CS[C@@H]21 [CEFOXITIN]
Klebsiella pneumoniae [1]
  MIC: 64 µg/mL (≈ 150 µM)
Escherichia coli [2]
  MIC: 2 µg/mL (≈ 4.68 µM)
Escherichia coli [3]
  MIC: 2 µg/mL (≈ 4.68 µM)
Escherichia coli [4]
  MIC: 4 µg/mL (≈ 9.36 µM)
Escherichia coli [5]
  MIC: 4 µg/mL (≈ 9.36 µM)
Escherichia coli [6]
  MIC: 4 µg/mL (≈ 9.36 µM)

## CC(C)(O/N=C(\C(=O)N[C@@H]1C(=O)N2C(C(=O)[O-])=C(C[n+]3ccccc3)CS[C@H]12)c1csc(N)n1)C(=O)O [CEFTAZIDIME]
Klebsiella pneumoniae [1]
  MIC: 16 µg/mL (≈ 29.3 µM)
Escherichia coli [2]
  MIC: 4 µg/mL (≈ 7.32 µM)
Escherichia coli [3]
  MIC: 0.06 µg/mL (≈ 0.11 µM)
Escherichia coli [4]
  MIC: 8 µg/mL (≈ 14.6 µM)
Escherichia coli [5]
  MIC: 64 µg/mL (≈ 117 µM)
Escherichia coli [6]
  MIC: 0.13 µg/mL (≈ 0.238 µM)
Klebsiella pneumoniae [7]
  MIC: 4 µg/mL
Escherichia coli [8]
  MIC: 0.25 µg/mL
Escherichia coli [9]
  MIC: 0.06 µg/mL
Escherichia coli [10]
  MIC: 0.25 µg/mL
Escherichia coli [11]
  MIC: 0.25 µg/mL
Escherichia coli [12]
  MIC: 0.06 µg/mL

## CO/N=C(\C(=O)N[C@@H]1C(=O)N2C(C(=O)O)=C(COC(N)=O)CS[C@H]12)c1ccco1 [CEFUROXIME]
Klebsiella pneumoniae [1]
  MIC: > 512 µg/mL
Escherichia coli [2]
  MIC: 256 µg/mL (≈ 603 µM)
Escherichia coli [3]
  MIC: 2 µg/mL (≈ 4.71 µM)
Escherichia coli [4]
  MIC: 512 µg/mL (≈ 1210 µM)
Escherichia coli [5]
  MIC: > 512 µg/mL
Escherichia coli [6]
  MIC: 4 µg/mL (≈ 9.43 µM)

## C[C@@H](O)[C@H]1C(=O)N2C(C(=O)O)=C(S[C@@H]3CN[C@H](C(=O)Nc4cccc(C(=O)O)c4)C3)[C@H](C)[C@H]12 [ERTAPENEM]
Klebsiella pneumoniae [1]
  MIC: 3 µg/mL (≈ 6.31 µM)
Escherichia coli [2]
  MIC: 0.016 µg/mL (≈ 0.0336 µM)
Escherichia coli [3]
  MIC: 0.008 µg/mL (≈ 0.0168 µM)
Escherichia coli [4]
  MIC: 0.016 µg/mL (≈ 0.0336 µM)
Escherichia coli [5]
  MIC: 0.03 µg/mL (≈ 0.0631 µM)
Escherichia coli [6]
  MIC: 0.016 µg/mL (≈ 0.0336 µM)
Klebsiella pneumoniae [7]
  MIC: 8 µg/mL

## C[C@@H](O)[C@H]1C(=O)N2C(C(=O)O)=C([C@H]3CCCO3)S[C@H]12 [FAROPENEM]
Klebsiella pneumoniae [1]
  MIC: 4 µg/mL (≈ 14 µM)
Escherichia coli [2]
  MIC: 1 µg/mL (≈ 3.5 µM)
Escherichia coli [3]
  MIC: 0.5 µg/mL (≈ 1.75 µM)
Escherichia coli [4]
  MIC: 0.5 µg/mL (≈ 1.75 µM)
Escherichia coli [5]
  MIC: 1 µg/mL (≈ 3.5 µM)
Escherichia coli [6]
  MIC: 0.5 µg/mL (≈ 1.75 µM)
Klebsiella pneumoniae [7]
  MIC: 4 µg/mL
Escherichia coli [8]
  MIC: 0.5 µg/mL
Escherichia coli [9]
  MIC: 0.5 µg/mL
Escherichia coli [10]
  MIC: 0.5 µg/mL
Escherichia coli [11]
  MIC: 0.5 µg/mL
Escherichia coli [12]
  MIC: 0.25 µg/mL

## C[C@@H](O)[C@H]1C(=O)N2C(C(=O)O)=C(SCCNC=N)C[C@H]12 [IMIPENEM ANHYDROUS]
Klebsiella pneumoniae [1]
  MIC: 1 µg/mL (≈ 3.34 µM)
Klebsiella pneumoniae [7]
  MIC: 0.5 µg/mL
Escherichia coli [9]
  MIC: 0.13 µg/mL
Escherichia coli [10]
  MIC: 0.25 µg/mL

## C[C@@H](O)[C@H]1C(=O)N2C(C(=O)O)=C(S[C@@H]3CN[C@H](C(=O)N(C)C)C3)[C@H](C)[C@H]12 [MEROPENEM]
Klebsiella pneumoniae [1]
  MIC: 4 µg/mL (≈ 10.4 µM)
Escherichia coli [2]
  MIC: 0.03 µg/mL (≈ 0.0782 µM)
Escherichia coli [3]
  MIC: 0.03 µg/mL (≈ 0.0782 µM)
Escherichia coli [4]
  MIC: 0.03 µg/mL (≈ 0.0782 µM)
Escherichia coli [5]
  MIC: 0.03 µg/mL (≈ 0.0782 µM)
Escherichia coli [6]
  MIC: 0.03 µg/mL (≈ 0.0782 µM)
Klebsiella pneumoniae [7]
  MIC: 0.5 µg/mL
Escherichia coli [8]
  MIC: 0.016 µg/mL
Escherichia coli [9]
  MIC: 0.016 µg/mL
Escherichia coli [10]
  MIC: 0.03 µg/mL
Escherichia coli [11]
  MIC: 0.03 µg/mL
Escherichia coli [12]
  MIC: 0.03 µg/mL

## CCN1CCN(C(=O)N[C@@H](C(=O)N[C@@H]2C(=O)N3[C@@H]2SC(C)(C)[C@@H]3C(=O)O)c2ccccc2)C(=O)C1=O [PIPERACILLIN]
Klebsiella pneumoniae [1]
  MIC: > 256 µg/mL
Escherichia coli [2]
  MIC: > 256 µg/mL
Escherichia coli [3]
  MIC: 1 µg/mL (≈ 1.93 µM)
Escherichia coli [4]
  MIC: 256 µg/mL (≈ 495 µM)
Escherichia coli [5]
  MIC: > 256 µg/mL
Escherichia coli [6]
  MIC: 2 µg/mL (≈ 3.86 µM)
Klebsiella pneumoniae [13]
  MIC: > 256 µg/mL
Escherichia coli [14]
  MIC: 16 µg/mL
Escherichia coli [15]
  MIC: 1 µg/mL
Escherichia coli [16]
  MIC: 2 µg/mL
Escherichia coli [17]
  MIC: 2 µg/mL
Escherichia coli [18]
  MIC: 1 µg/mL
